Molecular target: phosphorylated active hERK2 enzyme (Homo sapiens (Human), UniProt P28482)
Assay: Active Human ERK2 (hERK2) Activity Assay (IMAP-FP)
Type: biochemical
Settings: 0.5 nM hERK2, 30 μM ATP, 60 minutes reaction; read-out: ERK 2 Human average IC50
Procedure: Active Human ERK2 (hERK2) Activity Assay:
Activated ERK2 activity was determined in an IMAP-FP assay (Molecular Devices).

phosphorylated active hERK2 enzyme, sequence (P28482 whole entry): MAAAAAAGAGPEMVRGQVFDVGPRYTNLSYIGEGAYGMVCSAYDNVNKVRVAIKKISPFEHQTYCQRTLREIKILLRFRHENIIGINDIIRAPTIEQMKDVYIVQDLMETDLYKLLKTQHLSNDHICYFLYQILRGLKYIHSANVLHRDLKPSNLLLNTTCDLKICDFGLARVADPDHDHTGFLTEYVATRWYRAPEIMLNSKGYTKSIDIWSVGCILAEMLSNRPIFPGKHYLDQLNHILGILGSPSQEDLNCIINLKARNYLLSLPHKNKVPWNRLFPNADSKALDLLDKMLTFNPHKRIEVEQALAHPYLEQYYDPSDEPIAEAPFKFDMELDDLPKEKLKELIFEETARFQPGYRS

| IC50 | SMILES |
| --- | --- |
| 3.6 nM | Cc1cc(-c2n[nH]c3cc4c(cc23)CCC(=O)N4O)ccn1 [Example 8, 8-hydroxy-3-(2-methylpyridin-4-yl)-5,6-dihydro-1H-pyrazolo[4,3-g]quinolin-7(8H)-one] |
| 0.3 nM | C[C@H](c1ccccc1)N1Cc2cc3c(-c4ccc5nnn(C)c5c4)n[nH]c3cc2NC1=O [Example 26, (R)-3-(1-methyl-1H-benzo[d][1,2,3]triazol-6-yl)-6-(1-phenylethyl)-5,6-dihydro-1H-pyrazolo[4,3-g]quinazolin-7(8H)-one] |
| 22 nM | CCNc1n[nH]c2cc3c(cc12)CN([C@H](C)c1ccccc1)C(=O)N3 [Example 29, (R)-3-(ethylamino)-6-(1-phenylethyl)-5,6-dihydro-1H-pyrazolo[4,3-g]quinazolin-7(8H)-one] |
| 25 nM | C[C@H](c1ccccc1)N1Cc2cc3c(N[C@@H](C)C(F)(F)F)n[nH]c3cc2NC1=O [Example 30, 6-((R)-1-phenylethyl)-3-(((S)-1,1,1-trifluoropropan-2-yl)amino)-5,6-dihydro-1H-pyrazolo[4,3-g]quinazolin-7(8H)-one] |
| 21 nM | C[C@H](c1ccccc1)N1Cc2cc3c(N)n[nH]c3cc2NC1=O [Example 32, (R)-3-amino-6-(1-phenylethyl)-5,6-dihydro-1H-pyrazolo[4,3-g]quinazolin-7(8H)-one] |
| 5.2 nM | COC(=O)Nc1n[nH]c2cc3c(cc12)CN([C@H](C)c1ccccc1)C(=O)N3 [Example 33, (R)-methyl(7-oxo-6-(1-phenylethyl)-5,6,7,8-tetrahydro-1H-pyrazolo[4,3-g]quinazolin-3-yl)carbamate] |
| 45 nM | C[C@H](c1ccccc1)n1c(=O)[nH]c2cc3[nH]nc(N)c3cc2c1=O [Example 44, (R)-3-amino-6-(1-phenylethyl)-1H-pyrazolo[4,3-g]quinazoline-5,7(6H,8H)-dione] |

| SMILES | IC50 |
| --- | --- |
| C[C@H](c1ccccc1)N1Cc2cc3cn[nH]c3cc2NC1=O [Example 31, (R)-6-(1-phenylethyl)-5,6-dihydro-1H-pyrazolo[4,3-g]quinazolin-7(8H)-one] | 55 nM |
